In PubChem BioAssay AID330 (DTP/NCI, 2004):
Values joined by “and” are separate entries in the source; they are usually repeats but may differ in a detail not shown here. Identical values can stand only once. Toxic doses and inconclusive results are not listed. Peptide text beside a SMILES is read from it. * marks the point of attachment. Cbz = O=C(OCc1ccccc1)*

Test system: P388 leukemia ip, CD2F1 mice, survival T/C
Assay: NCI In Vivo Anticancer Drug Screen. Data for tumor model P388 Leukemia (intraperitoneal) in CD2F1 (CDF1) mice
Details: endpoint: median survival time, higher = longer survival
Outline: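 Mice carrying the transplanted tumor received test compound or vehicle. Survival was recorded in each group, and the value is the treated-group measurement divided by that of the vehicle-treated control group.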

[1] = dose: 50.0 mg/kg/injection, schedule: Q01DX005 (ip), vehicle: Klucel (hydroxypropylcellulose) (HPC)
[2] = dose: 100.0 mg/kg/injection, schedule: Q01DX005 (ip), vehicle: Klucel (hydroxypropylcellulose) (HPC)
[3] = dose: 200.0 mg/kg/injection, schedule: Q01DX005 (ip), vehicle: Klucel (hydroxypropylcellulose) (HPC)
[4] = dose: 50.0 mg/kg/injection, schedule: Q01DX005 (ip), vehicle: saline with Tween-80
[5] = dose: 100.0 mg/kg/injection, schedule: Q01DX005 (ip), vehicle: saline with Tween-80
[6] = dose: 200.0 mg/kg/injection, schedule: Q01DX005 (ip), vehicle: saline with Tween-80
[7] = dose: 50.0 mg/kg/injection, schedule: Q01DX009 (ip), vehicle: saline with Tween-80
[8] = dose: 100.0 mg/kg/injection, schedule: Q01DX009 (ip), vehicle: saline with Tween-80
[9] = dose: 200.0 mg/kg/injection, schedule: Q01DX009 (ip), vehicle: saline with Tween-80
[10] = dose: 50.0 mg/kg/injection, schedule: Q04DX003 (ip), vehicle: saline with Tween-80
[11] = dose: 100.0 mg/kg/injection, schedule: Q04DX003 (ip), vehicle: saline with Tween-80
[12] = dose: 60.0 mg/kg/injection, schedule: Q01DX005 (ip), vehicle: saline
[13] = dose: 120.0 mg/kg/injection, schedule: Q01DX005 (ip), vehicle: saline
[14] = dose: 240.0 mg/kg/injection, schedule: Q01DX005 (ip), vehicle: saline
[15] = dose: 60.0 mg/kg/injection, schedule: Q01DX005 (ip), vehicle: saline with Tween-80
[16] = dose: 240.0 mg/kg/injection, schedule: Q01DX005 (ip), vehicle: saline with Tween-80
[17] = dose: 15.0 mg/kg/injection, schedule: Q01DX005 (ip), vehicle: saline with Tween-80
[18] = dose: 30.0 mg/kg/injection, schedule: Q01DX005 (ip), vehicle: saline with Tween-80
[19] = dose: 25.0 mg/kg/injection, schedule: Q01DX009 (ip), vehicle: saline with Tween-80
[20] = dose: 3.75 mg/kg/injection, schedule: Q01DX005 (ip), vehicle: saline with Tween-80
[21] = dose: 7.5 mg/kg/injection, schedule: Q01DX005 (ip), vehicle: saline with Tween-80

For `CN(C)c1ncnc2c1ccn2COCCO`, the T/C (dose: 50.0 mg/kg/injection, schedule: Q01DX005 (ip), vehicle: distilled water + alcohol) was 100 % of control, the T/C (dose: 100.0 mg/kg/injection, schedule: Q01DX005 (ip), vehicle: distilled water + alcohol) was 98 % of control and the T/C (dose: 200.0 mg/kg/injection, schedule: Q01DX005 (ip), vehicle: distilled water + alcohol) was 107 % of control.

`N#CCCN(N)S(=O)(=O)c1ccc(Cl)cc1` was tested, and the T/C [1] was 97 % of control, the T/C [2] was 99 % of control and the T/C [3] was 96 % of control.

With `NC(=O)C1CCCN1C(=O)C(Cc1ccc(O)cc1)NC(=O)OCc1ccccc1` (stereo not drawn) (Cbz-Tyr-Pro-NH2; configuration not given here) the T/C [4] was 104 % of control, the T/C [5] was 97 % of control and the T/C [6] was 94 % of control.

With `CC(=O)c1ccc(OCc2ccccc2)c(OCc2ccccc2)c1` the T/C [7] was 115 % of control, the T/C [8] was 106 % of control and the T/C [9] was 95 % of control. For the same compound, the T/C (dose: 400.0 mg/kg/injection, schedule: Q01DX009 (ip), vehicle: saline with Tween-80) was 93 % of control.

In the case of `Cc1cccc(CCl)n1`, the T/C (dose: 50.0 mg/kg/injection, schedule: Q01DX009 (ip), vehicle: saline) is reported as 90 % of control, the T/C (dose: 100.0 mg/kg/injection, schedule: Q01DX009 (ip), vehicle: saline) is reported as 107 % of control and the T/C (dose: 200.0 mg/kg/injection, schedule: Q01DX009 (ip), vehicle: saline) is reported as 105 % of control.

In the case of `CC1CC(C)(C)N=C(CCC2CCCCCC2=O)O1` (configuration not stated), the T/C [10] is reported as 100 % of control, the T/C [11] is reported as 100 % of control and the T/C (dose: 200.0 mg/kg/injection, schedule: Q04DX003 (ip), vehicle: saline with Tween-80) is reported as 100 % of control.

`CC(C)N(CC#CCO)CCO` was tested, and the T/C [12] was 99 % of control, the T/C [13] was 100 % of control and the T/C [14] was 99 % of control.

With `COC1=C(Br)C(=O)N/C1=C(\OC)c1ccccc1` the T/C [15] was 89 % of control, the T/C (dose: 120.0 mg/kg/injection, schedule: Q01DX005 (ip), vehicle: saline with Tween-80) was 98 % of control and the T/C [16] was 89 % of control.

With `CSc1nc(SC)c2cnn(COCCO)c2n1` the T/C [4] was 92 % of control, the T/C [5] was 92 % of control and the T/C [6] was 92 % of control.

With `NS(=O)(=O)C1CCCCC1` the T/C (dose: 3.13 mg/kg/injection, schedule: Q01DX009 (ip), vehicle: saline) was 106 % of control, the T/C (dose: 6.25 mg/kg/injection, schedule: Q01DX009 (ip), vehicle: saline) was 99 % of control and the T/C (dose: 12.5 mg/kg/injection, schedule: Q01DX009 (ip), vehicle: saline) was 106 % of control. The T/C (dose: 25.0 mg/kg/injection, schedule: Q01DX009 (ip), vehicle: saline) was 106 % of control.

In the case of `CCOC(CN/C(=C/c1ccc2ccccc2[n+]1C)SC)OCC`, the T/C [17] is reported as 117 % of control and the T/C [18] is reported as 121 % of control.

With `CCOC(=O)C[n+]1cc2ccccc2cc1C` the T/C [4] was 94 % of control and the T/C [5] was 108 % of control.

`COc1cc2c(cc1OC)C1=[N+](CCC1)CC2` was tested, and the T/C (dose: 15.0 mg/kg/injection, schedule: Q01DX005 (ip), vehicle: saline) was 101 % of control, the T/C (dose: 30.0 mg/kg/injection, schedule: Q01DX005 (ip), vehicle: saline) was 99 % of control and the T/C [12] was 99 % of control.

For `COC(=O)n1c(=O)oc2ccc(Br)cc21`, the T/C [1] was 104 % of control, the T/C [2] was 106 % of control and the T/C [3] was 102 % of control.

`CCOP(=O)(O)SP(=O)(O)OCC` was tested, and the T/C (dose: 25.0 mg/kg/injection, schedule: Q01DX001 (ip), vehicle: saline) was 100 % of control, the T/C (dose: 50.0 mg/kg/injection, schedule: Q01DX001 (ip), vehicle: saline) was 102 % of control and the T/C (dose: 100.0 mg/kg/injection, schedule: Q01DX001 (ip), vehicle: saline) was 102 % of control and 100 % of control. For the same compound, the T/C (dose: 200.0 mg/kg/injection, schedule: Q01DX001 (ip), vehicle: saline) was 101 % of control and the T/C (dose: 400.0 mg/kg/injection, schedule: Q01DX001 (ip), vehicle: saline) was 101 % of control.

With `Clc1ccc([Si]23OCCN(CCO2)CCO3)cc1` the T/C (dose: 0.19 mg/kg/injection, schedule: Q01DX009 (ip), vehicle: Klucel (hydroxypropylcellulose) (HPC)) was 93 % of control, the T/C (dose: 0.39 mg/kg/injection, schedule: Q01DX009 (ip), vehicle: Klucel (hydroxypropylcellulose) (HPC)) was 99 % of control and the T/C (dose: 0.78 mg/kg/injection, schedule: Q01DX009 (ip), vehicle: Klucel (hydroxypropylcellulose) (HPC)) was 108 % of control.

In the case of `S=C=NP1(N=C=S)=NP(N=C=S)(N=C=S)=NP(N=C=S)(N=C=S)=NP(N=C=S)(N=C=S)=N1` (configuration not stated), the T/C (dose: 12.5 mg/kg/injection, schedule: Q01DX005 (ip), vehicle: saline with Tween-80) is reported as 100 % of control, the T/C (dose: 25.0 mg/kg/injection, schedule: Q01DX005 (ip), vehicle: saline with Tween-80) is reported as 99 % of control and the T/C [4] is reported as 104 % of control and 109 % of control. The T/C [5] was 114 % of control.

With `O=c1cc(-c2ccccc2)c2ccc(O)c(CN(CCO)CCO)c2o1` the T/C (dose: 100.0 mg/kg/injection, schedule: Q04DX002 (ip), vehicle: saline with Tween-80) was 89 % of control and the T/C (dose: 200.0 mg/kg/injection, schedule: Q04DX002 (ip), vehicle: saline with Tween-80) was 89 % of control.

In the case of `Nc1cc(Cl)c(Cl)cc1Cl`, the T/C (dose: 12.5 mg/kg/injection, schedule: Q01DX009 (ip), vehicle: saline with Tween-80) is reported as 100 % of control, the T/C [19] is reported as 95 % of control and the T/C [7] is reported as 90 % of control.

With `CN(C)C(=S)N1C(=O)C2C3CCC(O3)C2C1=O` (configuration not stated) the T/C (dose: 1.87 mg/kg/injection, schedule: Q01DX005 (ip), vehicle: saline with Tween-80) was 102 % of control, the T/C [20] was 100 % of control and the T/C [21] was 99 % of control and 98 % of control.

In the case of `O=C(O)c1cc2ccccc2o1`, the T/C (dose: 25.0 mg/kg/injection, schedule: Q04DX003 (ip), vehicle: saline with Tween-80) is reported as 100 % of control, the T/C [10] is reported as 104 % of control and the T/C [8] is reported as 95 % of control. The T/C [11] was 104 % of control and the T/C [9] was 95 % of control.

In the case of `O=C1NC(=O)C(F)(F)C(O)N1` (configuration not stated), the T/C (dose: 75.0 mg/kg/injection, schedule: Q04DX002 (ip), vehicle: saline) is reported as 109 % of control, the T/C (dose: 100.0 mg/kg/injection, schedule: Q01DX009 (ip), vehicle: saline sonified) is reported as 154 % of control and the T/C (dose: 150.0 mg/kg/injection, schedule: Q01DX009 (ip), vehicle: saline sonified) is reported as 172 % of control. The T/C (dose: 150.0 mg/kg/injection, schedule: Q04DX002 (ip), vehicle: saline) was 109 % of control, the T/C (dose: 220.0 mg/kg/injection, schedule: Q01DX009 (ip), vehicle: saline sonified) was 177 % of control and the T/C (dose: 300.0 mg/kg/injection, schedule: Q04DX002 (ip), vehicle: saline) was 116 % of control. For the same compound, the T/C (dose: 600.0 mg/kg/injection, schedule: Q04DX002 (ip), vehicle: saline) was 106 % of control and the T/C (dose: 1200.0 mg/kg/injection, schedule: Q04DX002 (ip), vehicle: saline) was 104 % of control.

In the case of `CC(=O)C[n+]1ccccc1-c1ccccc1C`, the T/C [4] is reported as 103 % of control.

For `CN1c2ccccc2SC2C(c3ccccc3)=NOC21` (configuration not stated), the T/C [20] was 98 % of control, the T/C [21] was 93 % of control and the T/C [17] was 90 % of control. The T/C [18] was 88 % of control, the T/C [15] was 86 % of control and the T/C [16] was 89 % of control.

With `CC1(C)OC(=O)C(CC(=O)O)O1` (configuration not stated) the T/C [12] was 105 % of control, the T/C [13] was 100 % of control and the T/C [14] was 100 % of control.

For `COc1cc(N=Nc2ccc([N+](=O)[O-])cc2)ccc1N(CCCl)CCCl`, the T/C [7] was 151 % of control, the T/C [8] was 153 % of control and 156 % of control and the T/C [9] was 168 % of control and 201 % of control.

With `ONc1ncnc2nc[nH]c12` the T/C [10] was 122 % of control and the T/C (dose: 200.0 mg/kg/injection, schedule: Q04DX003 (ip), vehicle: saline sonified) was 120 % of control.

In the case of `CC(C)(C)C1=CS(=O)(=O)C(C(C)(C)C)C(O)O1` (configuration not stated), the T/C [19] is reported as 100 % of control.

For `Cc1ccccc1C1OC2=C(Nc3ccccc3N2)C1=O` (configuration not stated), the T/C (dose: 60.0 mg/kg/injection, schedule: Q01DX005 (ip), vehicle: Klucel (hydroxypropylcellulose) (HPC)) was 99 % of control, the T/C (dose: 120.0 mg/kg/injection, schedule: Q01DX005 (ip), vehicle: Klucel (hydroxypropylcellulose) (HPC)) was 101 % of control and the T/C (dose: 240.0 mg/kg/injection, schedule: Q01DX005 (ip), vehicle: Klucel (hydroxypropylcellulose) (HPC)) was 92 % of control.

For `CCCC(=O)C(CC)C1(C(=O)OC)NC(=S)NC(=O)C1C#N` (configuration not stated), the T/C [12] was 98 % of control, the T/C [13] was 105 % of control and the T/C [14] was 98 % of control.
